Measurements taken from patent publication US6355677B1, “Adrenoleukodystrophy treatments and drug screening” (The Johns Hopkins University, priority 1998, dated 2002).
“And” between values parts separate entries of the source, which are not always exact repeats. Equal values may be shown once. “Also recorded” adds a separate entry of the source.

Assays:
[1] = used for many years in patients; cited from earlier work
X-ALD mice = assay: In vivo efficacy: VLCFA levels in brain and adrenal glands after dietary treatment; set-up: species or system mouse
Experimental: To measure the in vivo efficacy of 4-PBA, we supplemented mouse chow and water with 4-PBA.
In vivo delivery of 4-PBA to X-ALD mice. 4-PBA was delivered to X-ALD mice in their regular chow and water. 4-PBA chow was prepared by B'OServ (Holton Industries, Frenchtown, N.J.). […] Brains and adrenal glands from normal LD and X-ALD/4-PBA mice were collected for VLCFA analysis as described.

[2] = system: human X-ALD lymphoblastoid cells; assay: VLCFA (C24:0 and C26:0) levels in cultured cells, capillary GC; assay type: cell-based
Experimental: (§1) Cell lines derived from X-ALD patients and X-ALD mice were grown in MEM (fibroblasts) or RPMI (lymphoblastoid cells) supplemented with fetal calf serum (10%), penicillin (100 U/ml), streptomycin (100 U/ml) and glutamine (2 mM). […] Cells in the second flask were grown without drug for the same length of time and served as controls. The media were changed every 3-4 days.
(§2) For VLCFA measurements, total lipids were extracted, converted to methyl esters, purified by TLC and subjected to capillary GC analysis as described. Duplicate assays were set up independently and were assayed on different days. C24:0 β-oxidation activity of human and mouse fibroblasts and human lymphoblastoid cells was determined by measuring their capacity to degrade [1-^14C]-C24:0 fatty acid (American Radiolabeled Chemicals, St. Louis, Mo.) to water-soluble products as described. Phytanic acid oxidation was measured as described. Cells were incubated with [2,3-^3H]-phytanic acid for 24 hours, and the release of ^3H-H2O to the aqueous medium was determined (activity in pmol/hr per mg protein).

[3] = system: mouse X-ALD primary fibroblasts; assay: as above; assay type: cell-based; conditions: 5 mM; for C24:0 Percent Correction / C24:0 level, Treated / C26:0 Percent Correction / C26:0 level, Treated: X-ALD mouse primary fibroblasts
Experimental: as §1, §2

[4] = system: human X-ALD primary fibroblasts; assay: as above; assay type: cell-based; conditions: for C24:0 level, Treated / C26:0 Percent Correction / C26:0 level, Treated / C24:0 Percent Correction: X-ALD human primary fibroblasts
Experimental: as §1, §2

[5] = system: human primary fibroblasts; assay: Peroxisome counting by anti-SKL (PTS1) immunofluorescence; assay type: cell-based; conditions: 5 mM
Text: Peroxisomes were made visible with immunofluorescence using a polyclonal antibody to the C-terminal tripeptide (SKL) peroxisome targeting signal 1 (PTS1), which is present in most peroxisomal matrix proteins. […] We counted the peroxisomes after 10 days of treatment (Table 3). Slides were scanned visually and cells categorized as having low, medium or high numbers of peroxisomes. For each cell line, the number of peroxisomes is the mean of three ‘low’, four ‘medium’ and three ‘high’ cells (Table 3). There was no difference between control cells and X-ALD cells in either the number of peroxisomes per cell or in the response to 4-PBA. […] The 2.4-fold increase in the number of peroxisomes per cell was statistically significant (P<0.0000001, two-tailed Student's t-test). Peroxisome numbers obtained with an antibody against a peroxisomal membrane protein (Pex14p) gave similar results (data not shown).
The anti-SKL (PTSI) antibody was a gift from S. Gould and the anti-Pex11α antibody was a gift from S. Mihalik. To count peroxisomes, we photographed immunofluorescence-stained cells after focusing on the cell nucleus, and determined the peroxisome number per cell with the aid of a colon counter after projecting the slides to enlarge the image.

[6] = dietary 4-PBA (about 70 mg per day), 6 weeks
[7] = X-ALD human lymphoblastoid cells, 5 mM, exposure 6 days
[8] = X-ALD human lymphoblastoid cells, 5 mM, exposure 10 days
[9] = between 1 mM and 5 mM, data not shown

## O=C(O)CCCc1ccccc1 [4-PBA, 4-Phenyl butyrate]
[1]
  Side effects: few, if any, side effects
X-ALD mice; [6]
  Correction of brain C24:0: complete correction; also recorded: complete normalization
  Correction of brain C26:0: 78% and 80%
X-ALD mice; dietary 4-PBA, 4 weeks
  Adrenal gland VLCFA (C24:0 and C26:0) levels: substantial reduction
  Brain VLCFA (C24:0 and C26:0) levels: substantial reduction
[2]; 5 mM, human lymphoblastoid cells
  Time of treatment until C24:0 and C26:0 levels were normalized: ≤ 10 days
[2]; [7]
  C24:0 level, Treated: 0.65 ± 0.17% of total fatty acids
  C26:0 Percent Correction: 71%
  C26:0 level, Treated: 0.11 ± 0.05% of total fatty acids
[2]; [8]
  C24:0 Percent Correction: 161%
  C24:0 level, Treated: 0.54 ± 0.16% of total fatty acids
  C26:0 Percent Correction: 90%
  C26:0 level, Treated: 0.09 ± 0.05% of total fatty acids
[2]; [9]
  Effect on VLCFA levels over concentration range: dose-dependent decrease
[3]; mouse fibroblasts
  Time of treatment until C24:0 and C26:0 levels were normalized: ≤ 10 days
[3]; exposure 5 days
  C24:0 Percent Correction: 115%
  C24:0 level, Treated: 1.10 ± 0.15% of total fatty acids
  C26:0 Percent Correction: 92%
  C26:0 level, Treated: 0.07 ± 0.03% of total fatty acids
[3]; exposure 9 days
  C24:0 Percent Correction: 152%
  C24:0 level, Treated: 0.87 ± 0.04% of total fatty acids
  C26:0 Percent Correction: 100%
  C26:0 level, Treated: 0.05 ± 0.01% of total fatty acids
[4]; 5 mM, human X-ALD fibroblasts
  Time of treatment until C24:0 levels were normalized: ≤ 10 days
[4]; 5 mM, exposure 1 day
  C24:0 level, Treated: 2.65 ± 0.36% of total fatty acids
  C26:0 Percent Correction: 2%
  C26:0 level, Treated: 0.51 ± 0.14% of total fatty acids
[4]; 5 mM, exposure 1 day, untreated X-ALD 0%, normal 100%
  C24:0 Percent Correction: −1%
[4]; 5 mM, exposure 6 days
  C24:0 Percent Correction: 81%
  C24:0 level, Treated: 1.82 ± 0.28% of total fatty acids
  C26:0 Percent Correction: 26%
  C26:0 level, Treated: 0.41 ± 0.04% of total fatty acids
[4]; 5 mM, exposure 12 days
  C24:0 Percent Correction: 155%
  C24:0 level, Treated: 1.43 ± 0.34% of total fatty acids
  C26:0 Percent Correction: 33%
  C26:0 level, Treated: 0.31 ± 0.06% of total fatty acids
[4]; 5 mM, exposure 16 days
  C24:0 Percent Correction: 96%
  C24:0 level, Treated: 1.69 ± 0.27% of total fatty acids
  C26:0 Percent Correction: 38%
  C26:0 level, Treated: 0.28 ± 0.03% of total fatty acids
[4]; 5 mM, exposure 22 days
  C24:0 Percent Correction: 128%
  C24:0 level, Treated: 1.52 ± 0.14% of total fatty acids
  C26:0 Percent Correction: 47%
  C26:0 level, Treated: 0.27 ± 0.04% of total fatty acids
[4]; [9]
  Effect on VLCFA levels over concentration range: dose-dependent decrease
[5]; 10 days
  Increase in number of peroxisomes per cell: 2.4 fold
[5]; 10 days, five X-ALD and four control cell lines combined, 416±27 before exposure
  Peroxisomes per cell after exposure: 1014±108 peroxisomes per cell
[5]; human X-ALD primary fibroblasts, 8 days
  Increase in peroxisome number: approximately twofold
